The target of one experiment is MCL-1 (Homo sapiens (Human), UniProt Q07820, K194A/K197A/R201A). Put plainly: Protein-protein interaction assay MCL-1/Noxa BH3 peptide (MCL-1 assay), TR-FRET. It counts as binding. To be noted: MCL-1/Noxa BH3 peptide TR-FRET; median. The essentials: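 TR-FRET competition between MBP-MCL-1 (173-321, 1 nM) and biotin-Noxa BH3 peptide (1 nM) with anti-MBP-Eu/streptavidin-XL665; 11 compound levels 0.1 nM–20 μM, 10 min preincubation. Incubated 1 h at 22 °C then overnight at 4 °C, pH 7 Tris buffer. 665/620 ratio normalized to DMSO and no-MCL-1; 4-parameter IC50.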
Sequence of MCL-1 (Q07820 whole entry K194A/K197A/R201A, looked up): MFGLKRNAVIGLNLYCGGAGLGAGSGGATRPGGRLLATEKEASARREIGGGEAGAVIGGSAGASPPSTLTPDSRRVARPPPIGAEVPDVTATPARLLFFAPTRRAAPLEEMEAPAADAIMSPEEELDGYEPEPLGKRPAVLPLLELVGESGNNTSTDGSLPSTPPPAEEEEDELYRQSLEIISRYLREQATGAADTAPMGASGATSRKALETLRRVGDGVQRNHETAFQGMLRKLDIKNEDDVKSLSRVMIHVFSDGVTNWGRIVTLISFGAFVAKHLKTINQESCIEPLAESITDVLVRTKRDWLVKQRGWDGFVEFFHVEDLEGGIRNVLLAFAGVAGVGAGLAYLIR
A general note: TR-FRET usually uses a lanthanide donor and a delayed reading to cut background.

The test system of the next experiment is SUDHL10. Put plainly: Induction of caspase-3/7 activity, SUDHL10 (Assay 4). To be noted: SUDHL10 cells, 3 h, Caspase-Glo 3/7; median. It counts as cell-based. The essentials: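 DLBCL lines treated with compounds for 3 h at 37° C.; caspase-3/7 activity read by Caspase-Glo 3/7 luminescence. Medium-only background subtracted; EC50 fitted with bottom fixed at 1 and top set to reference compound's maximal induction.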

Another experiment has as its system SUDHL5. The experiment is described as follows: Antiproliferation assay SUDHL5 (Assay 7). It is filed as cell-based. The following applies: SUDHL5 cells, 72 h, CellTiter-Glo; median; read-out: IC50 Antiproli SUDHL5 [M] (median). In a few lines: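 CellTiter-Glo luminescence readout; 72 h compound exposure, 37 °C, humidified; rim wells excluded; time-zero reference plate plated in parallel and read identically.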
On the technique in general: In ATP-based viability assays light output follows the ATP content of the culture.

What is called IC50 is the midpoint of a concentration-inhibition curve. As usually defined, the EC50 is the concentration giving half of the maximal effect. Higher therefore signals weaker potency.

Structures can show the parent of a compound that is named as a salt.

Regarding `CCc1c2c(nn1C)COCCCCn1c(C(=O)O)c(CCCOc3ccc(F)c4ccccc34)c3ccc(F)c-2c31` (single isomer, unassigned; enantiomer 1) [Example 27, 3-ethyl-4-fluoro-7-{3-[(4-fluoronaphthalen-1-yl)oxy]propyl}-2-methyl-2,10,11,12,13,15-hexahydropyrazolo[4′,3′:9,10][1,6]oxazacycloundecino[8,7,6-hi]indole-8-carboxylic acid-N-ethylethanamine salt (enantiomer 1)], the values for the IC50 against MCL-1 and with SUDHL5 were 1.5 nM and 6.2e-07 M, respectively. In the experiment with SUDHL10, the response was half-maximal at 1600 nM (EC50).
Regarding `CCc1nn(C)c2c1-c1c(F)ccc3c(CCCOc4cccc5cc(F)ccc45)c(C(=O)O)n(c13)CCCCOC2` (single isomer, unassigned; enantiomer 1) [Example 39, 3-ethyl-4-fluoro-7-{3-[(6-fluoronaphthalen-1-yl)oxy]propyl}-1-methyl-1,10,11,12,13,15-hexahydropyrazolo[4′,3′:9,10][1,6]oxazacycloundecino[8,7,6-hi]indole-8-carboxylic acid-N-ethylethanamine salt (enantiomer 1)], the IC50 on MCL-1 amounted to 0.8 nM; in the experiment with SUDHL5, 6.8e-07 M. For the same molecule, in the experiment with SUDHL10, the EC50 amounted to 940 nM.
For `CCc1nn(C)c2c1-c1c(F)ccc3c(CCCOc4ccc(F)c5ccccc45)c(C(=O)O)n(c13)CCCCOC2` (single isomer, unassigned; enantiomer 1) [Example 42, 3-ethyl-4-fluoro-7-{3-[(4-fluoronaphthalen-1-yl)oxy]propyl}-1-methyl-1,10,11,12,13,15-hexahydropyrazolo[4′,3′:9,10][1,6]oxazacycloundecino[8,7,6-hi]indole-8-carboxylic acid (enantiomer 1)], the figures for the IC50 against MCL-1 and in the experiment on SUDHL5 were 1.7 nM and 2.1e-06 M, respectively. The molecule further showed an EC50 in the experiment on SUDHL10 of 6300 nM.
The matching figures for `Cc1c2c(nn1C)CNCCCCn1c(C(=O)O)c(CCCOc3cccc4ccccc34)c3ccc(F)c-2c31` (single isomer, unassigned; enantiomer 1) [Example 48, 4-fluoro-2,3-dimethyl-7-{3-[(naphthalen-1-yl)oxy]propyl}-10,11,12,13,14,15-hexahydro-2H-pyrazolo[3′,4′:8,9][1,6]diazacycloundecino[10,11,1-hi]indole-8-carboxylic acid (enantiomer 1)]: 1.1 nM, 1.4e-06 M and 2100 nM.
The matching figures for `CCc1c2c(nn1C)COCCCCn1c(C(=O)O)c(CCCOc3cccc4cc(F)ccc34)c3ccc(F)c-2c31` (single isomer, unassigned; enantiomer 2) [Example 23, 3-ethyl-4-fluoro-7-{3-[(6-fluoronaphthalen-1-yl)oxy]propyl}-2-methyl-2,10,11,12,13,15-hexahydropyrazolo[4′,3′:9,10][1,6]oxazacycloundecino[8,7,6-hi]indole-8-carboxylic acid-N-ethylethanamine salt (enantiomer 2)]: 9.6 nM, 1.4e-06 M and 11000 nM.
Take “(rac)-1-(3-((2,3-dihydro-1H-inden-4-yl)oxy)propyl)-12-ethyl-13-fluoro-11-methyl-4,5,6,7,9,11-hexahydropyrazolo[4′,3′:9,10][1]oxa[6]azacycloundecino[8,7,6-hi]indole-2-carboxylic acid [Example 30]”: the IC50 is 1.3 nM at MCL-1 and 1.5e-06 M in the experiment with SUDHL5. At SUDHL10, this molecule gave an EC50 of 1700 nM.

The record behind these values is patent US11286263B2, “Macrocyclic fluorine substituted indole derivatives” (The Broad Institute, Inc., priority 2017, dated 2022).
